This assay relates to bacteria. The assay can be described thus: Antibacterial activity. In kind it is cell-based.

As for `COC1(C)CC(O[C@H]2[C@H](C)[C@@H](OC3OC(C)CC(N(C)C)C3O)[C@](C)(O)C[C@@H](C)C(=O)[C@H](C)[C@@H](O)[C@](C)(O)[C@@H](CCF)OC(=O)[C@@H]2C)OC(C)C1O` (some centres unmarked) [15-fluoroerythromycin A, 15-Fluoroerythromycin A], the antibacterial activity entry is “strong antibacterial activity”. Turning to `CCC[C@H]1OC(=O)[C@H](C)[C@@H](O[C@H]2C[C@@](C)(OC)[C@@H](O)[C@H](C)O2)[C@H](C)[C@@H](O[C@@H]2O[C@H](C)C[C@H](N(C)C)[C@H]2O)[C@](C)(O)C[C@@H](C)C(=O)[C@H](C)[C@@H](O)[C@]1(C)O` [15-methylerythromycin A], the antibacterial activity entry is reported as “strong antibacterial activity”.
